Data published in ChEMBL document CHEMBL1201862, “PubChem BioAssay data set” (2004).
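Grown in 96-well plates, cells were treated for 48 hours with each compound at five concentrations. Insufficient inhibition: endpoint recorded as highest concentration tested. GI50 marks 50% less growth.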 Activity calls are given as the source filed them. Cut-off read from the data, not from the text of the source: active = GI50 up to about 1.1 µM and inactive = higher.

What was measured:
Experiment in all cases: NCI tumour cell line growth inhibition, 48 h
COLO 205 = test system: COLO 205
NCI-H226 = test system: NCI-H226
SNB-75 = test system: SNB-75
HOP-92 = test system: HOP-92
HCC 2998 = test system: HCC 2998
SF-295 = test system: SF-295
SK-MEL-5 = test system: SK-MEL-5
RPMI-8226 = test system: RPMI-8226
SN12C = test system: SN12C
OVCAR-5 = test system: OVCAR-5
786-0 = test system: 786-0
SR = test system: SR
MCF7 = test system: MCF7
OVCAR-3 = test system: OVCAR-3
OVCAR-8 = test system: OVCAR-8
HOP-62 = test system: HOP-62
Hs-578T = test system: Hs-578T
NCI/ADR-RES = test system: NCI/ADR-RES
CCRF-CEM = test system: CCRF-CEM
OVCAR-4 = test system: OVCAR-4
MDA-N = test system: MDA-N
CAKI-1 = test system: CAKI-1
BT-549 = test system: BT-549
HT-29 = test system: HT-29
SNB-19 = test system: SNB-19
SK-MEL-28 = test system: SK-MEL-28
SF-539 = test system: SF-539
EKVX = test system: EKVX
MDA-MB-231 = test system: MDA-MB-231
UO-31 = test system: UO-31
MOLT-4 = test system: MOLT-4
IGROV-1 = test system: IGROV-1
A498 = test system: A498
HCT-15 = test system: HCT-15
T47D = test system: T47D
KM12 = test system: KM12
M14 = test system: M14
SK-MEL-2 = test system: SK-MEL-2
U-251 = test system: U-251
HCT-116 = test system: HCT-116
NCI-H23 = test system: NCI-H23
NCI-H460 = test system: NCI-H460
TK-10 = test system: TK-10
DU-145 = test system: DU-145
UACC-257 = test system: UACC-257
SK-OV-3 = test system: SK-OV-3
ACHN = test system: ACHN
UACC-62 = test system: UACC-62
PC-3 = test system: PC-3
MDA-MB-435 = test system: MDA-MB-435
K562 = test system: K562
SF-268 = test system: SF-268
LOX IMVI = test system: LOX IMVI
SW-620 = test system: SW-620
A549 = test system: A549
HL-60 = test system: HL-60
Malme-3M = test system: Malme-3M
RXF 393 = test system: RXF 393
NCI-H522 = test system: NCI-H522

CCN1C(=O)c2ccccc2C1(O)c1ccc(Cl)cc1 (stereo not given)
GI50 (COLO 205): 35.6 µM (inactive) | GI50 (NCI-H226): 16.8 µM (inactive) | GI50 (SNB-75): > 10 µM (inactive) | GI50 (HOP-92): > 100 µM (inactive) | GI50 (HCC 2998): > 100 µM (inactive) | GI50 (SF-295): 18.4 µM (inactive) | GI50 (SK-MEL-5): 31.6 µM (inactive) | GI50 (RPMI-8226): 61.9 µM (inactive) | GI50 (SN12C): > 100 µM (inactive) | GI50 (OVCAR-5): 88.1 µM (inactive) | GI50 (786-0): 76.9 µM (inactive) | GI50 (SR): 41.2 µM (inactive) | GI50 (MCF7): 47.6 µM (inactive) | GI50 (OVCAR-3): 31.1 µM (inactive) | GI50 (OVCAR-8): 52.8 µM (inactive) | GI50 (HOP-62): 78 µM (inactive) | GI50 (Hs-578T): > 100 µM (inactive) | GI50 (NCI/ADR-RES): 16.5 µM (inactive) | GI50 (CCRF-CEM): 59.8 µM (inactive) | GI50 (OVCAR-4): > 100 µM (inactive) | GI50 (MDA-N): > 100 µM (inactive) | GI50 (CAKI-1): > 100 µM (inactive) | GI50 (BT-549): > 100 µM (inactive) | GI50 (HT-29): 41.9 µM (inactive) | GI50 (SNB-19): 20.7 µM (inactive) | GI50 (SK-MEL-28): 94 µM (inactive) | GI50 (SF-539): > 100 µM (inactive) | GI50 (EKVX): 33.3 µM (inactive) | GI50 (MDA-MB-231): > 100 µM (inactive) | GI50 (UO-31): 53.5 µM (inactive) | GI50 (MOLT-4): 47.3 µM (inactive) | GI50 (IGROV-1): 29.1 µM (inactive) | GI50 (A498): > 100 µM (inactive) | GI50 (HCT-15): > 100 µM | GI50 (T47D): 17.7 µM (inactive) | GI50 (KM12): 46 µM (inactive) | GI50 (M14): 59.4 µM (inactive) | GI50 (SK-MEL-2): 18.7 µM (inactive) | GI50 (U-251): 64.9 µM (inactive) | GI50 (HCT-116): 37.7 µM (inactive) | GI50 (NCI-H23): 38.2 µM (inactive) | GI50 (NCI-H460): 89.7 µM (inactive) | GI50 (TK-10): 94.4 µM (inactive) | GI50 (DU-145): 80.2 µM (inactive) | GI50 (UACC-257): 75.5 µM (inactive) | GI50 (SK-OV-3): 24.4 µM (inactive) | GI50 (ACHN): 46.5 µM (inactive) | GI50 (UACC-62): 79.1 µM (inactive) | GI50 (PC-3): 24.7 µM (inactive) | GI50 (MDA-MB-435): 83.2 µM (inactive) | GI50 (K562): > 100 µM (inactive) | GI50 (SF-268): 79.8 µM (inactive) | GI50 (LOX IMVI): 51.4 µM (inactive) | GI50 (SW-620): > 100 µM (inactive) | GI50 (A549): 25 µM (inactive) | GI50 (HL-60): 30 µM (inactive)

CCn1c(=O)c2c3ccc(O)cc3oc2c2ccc(O)cc21
GI50 (COLO 205): 44.7 µM (inactive) | GI50 (NCI-H226): 42.7 µM (inactive) | GI50 (SNB-75): 29.9 µM (inactive) | GI50 (HOP-92): 57.9 µM (inactive) | GI50 (HCC 2998): 47 µM (inactive) | GI50 (SF-295): 52.4 µM (inactive) | GI50 (SK-MEL-5): 22.5 µM (inactive) | GI50 (SN12C): 41.5 µM (inactive) | GI50 (786-0): 63.4 µM (inactive) | GI50 (SR): 27.6 µM (inactive) | GI50 (MCF7): 39.2 µM (inactive) | GI50 (OVCAR-3): 42.7 µM (inactive) | GI50 (OVCAR-8): 50.6 µM (inactive) | GI50 (HOP-62): 34.4 µM (inactive) | GI50 (Hs-578T): 14.6 µM (inactive) | GI50 (NCI/ADR-RES): 53.3 µM (inactive) | GI50 (CCRF-CEM): 28.2 µM (inactive) | GI50 (OVCAR-4): 62.4 µM (inactive) | GI50 (Malme-3M): 41.7 µM (inactive) | GI50 (MDA-N): 37.5 µM (inactive) | GI50 (CAKI-1): 39.4 µM (inactive) | GI50 (BT-549): 26.1 µM (inactive) | GI50 (HT-29): 48.1 µM (inactive) | GI50 (RXF 393): 53.7 µM (inactive) | GI50 (SNB-19): 43.8 µM (inactive) | GI50 (SK-MEL-28): 49.1 µM (inactive) | GI50 (SF-539): 34.9 µM (inactive) | GI50 (EKVX): 3.55 µM (inactive) | GI50 (MDA-MB-231): 30.2 µM (inactive) | GI50 (UO-31): 26.7 µM (inactive) | GI50 (MOLT-4): 25.5 µM (inactive) | GI50 (IGROV-1): 40.4 µM (inactive) | GI50 (A498): 25.4 µM (inactive) | GI50 (HCT-15): 39.4 µM | GI50 (T47D): 18.1 µM (inactive) | GI50 (KM12): 49.1 µM (inactive) | GI50 (M14): 43.2 µM (inactive) | GI50 (U-251): 32.2 µM (inactive) | GI50 (HCT-116): 27.2 µM (inactive) | GI50 (NCI-H23): 37.4 µM (inactive) | GI50 (NCI-H460): 34.6 µM (inactive) | GI50 (TK-10): 44 µM (inactive) | GI50 (DU-145): 47.8 µM (inactive) | GI50 (UACC-257): > 100 µM (inactive) | GI50 (SK-OV-3): 38.5 µM (inactive) | GI50 (ACHN): 24.8 µM (inactive) | GI50 (UACC-62): 31.1 µM (inactive) | GI50 (PC-3): 42.6 µM (inactive) | GI50 (MDA-MB-435): 33.7 µM (inactive) | GI50 (K562): 40.6 µM (inactive) | GI50 (NCI-H522): 40.1 µM (inactive) | GI50 (SF-268): 36.9 µM (inactive) | GI50 (SW-620): 41 µM (inactive) | GI50 (A549): 41.1 µM (inactive)

C[N+]1(C)CC[N+](C)(C)[BH-]1C(O)O
GI50 (COLO 205): > 100 µM (inactive) | GI50 (SNB-75): 0.376 µM (active) | GI50 (HOP-92): > 100 µM (inactive) | GI50 (HCC 2998): > 100 µM (inactive) | GI50 (SF-295): > 100 µM (inactive) | GI50 (SK-MEL-5): > 100 µM (inactive) | GI50 (SN12C): > 100 µM (inactive) | GI50 (OVCAR-5): > 100 µM (inactive) | GI50 (786-0): > 100 µM (inactive) | GI50 (SR): > 100 µM (inactive) | GI50 (MCF7): > 100 µM (inactive) | GI50 (OVCAR-3): > 100 µM (inactive) | GI50 (OVCAR-8): > 100 µM (inactive) | GI50 (HOP-62): > 100 µM (inactive) | GI50 (Hs-578T): > 100 µM (inactive) | GI50 (NCI/ADR-RES): > 100 µM (inactive) | GI50 (CCRF-CEM): > 100 µM (inactive) | GI50 (OVCAR-4): > 100 µM (inactive) | GI50 (MDA-N): > 100 µM (inactive) | GI50 (CAKI-1): > 100 µM (inactive) | GI50 (BT-549): > 100 µM (inactive) | GI50 (HT-29): > 100 µM (inactive) | GI50 (RXF 393): > 100 µM (inactive) | GI50 (SNB-19): > 100 µM (inactive) | GI50 (SK-MEL-28): > 100 µM (inactive) | GI50 (SF-539): > 100 µM (inactive) | GI50 (EKVX): > 100 µM (inactive) | GI50 (MDA-MB-231): > 100 µM (inactive) | GI50 (UO-31): > 100 µM (inactive) | GI50 (MOLT-4): > 100 µM (inactive) | GI50 (IGROV-1): > 100 µM (inactive) | GI50 (A498): > 100 µM (inactive) | GI50 (HCT-15): > 100 µM | GI50 (T47D): > 100 µM (inactive) | GI50 (KM12): > 100 µM (inactive) | GI50 (M14): > 100 µM (inactive) | GI50 (SK-MEL-2): > 100 µM (inactive) | GI50 (U-251): > 100 µM (inactive) | GI50 (HCT-116): > 100 µM (inactive) | GI50 (NCI-H23): > 100 µM (inactive) | GI50 (NCI-H460): > 100 µM (inactive) | GI50 (TK-10): > 100 µM (inactive) | GI50 (DU-145): > 100 µM (inactive) | GI50 (UACC-257): > 100 µM (inactive) | GI50 (ACHN): > 100 µM (inactive) | GI50 (UACC-62): > 100 µM (inactive) | GI50 (PC-3): > 100 µM (inactive) | GI50 (MDA-MB-435): > 100 µM (inactive) | GI50 (K562): > 100 µM (inactive) | GI50 (NCI-H522): > 100 µM (inactive) | GI50 (SF-268): > 100 µM (inactive) | GI50 (LOX IMVI): > 100 µM (inactive) | GI50 (SW-620): > 100 µM (inactive) | GI50 (A549): > 100 µM (inactive) | GI50 (HL-60): > 100 µM (inactive)
